Reference: patent publication US11369565B2, “Amino-pyrimidine skeletal muscle modulators” (Cytokinetics, Inc., priority 2010, dated 2022)

test system: rabbit skeletal myofibrils (approximately 90% fast fibers); experiment: Activation of fast skeletal myofibrils (PUMA coupled-enzyme ATPase assay at pCa25); format: biochemical; conditions: concentration at which the compound increased the enzymatic activity by 40%; calcium at pCa25; PM12 buffer pH 6.8
Procedure: Preparation of fast skeletal myofibrils. Rabbit skeletal myofibrils were prepared based upon the method of Herrmann et al. (Biochem. 32(28):7255-7263(1993). Myofibrils were prepared from rabbit psoas muscle purchased from Pel-Freez Biologicals (Arkansas) within 2 days of ordering, stored on ice. Minced muscle was homogenized in 10 volumes of ice-cold “standard” buffer (50 mM Tris, pH 7.4, 0.1 M potassium acetate, 5 mM KCl, 2 mM DTT, 0.2 mM PMSF, 10 μM leupeptin, 5 μM pepstatin, and 0.5 mM sodium azide) containing 5 mM EDTA and 0.5% Triton X-100 using an Omni-Macro homogenizer. Myofibrils were recovered by low speed centrifugation (3000 rpm for 10 minutes) and washed 2 times in the Triton X-100 containing buffer to ensure removal of cellular membrane. Following the Triton washes, myofibrils were washed 3 times in “standard” buffer containing 2 mM magnesium acetate. A final wash in assay buffer (12 mM PIPES, pH 6.8, 60 mM KCl, 1 mM DTT) was performed and brought to 10% sucrose for flash freezing in liquid nitrogen and storage at −80° C.
Activation of Fast Skeletal Myofibrils. Fast fiber activators were identified by measuring the enzymatic activity of muscle myofibril preparations using the proprietary PUMA™ (see, e.g., U.S. Pat. Nos. 6,410,254, 6,743,599, 7,202,051, and 7,378,254) assay system. Myofibril preparations consisted of rabbit skeletal muscle (approximately 90% fast fibers) that had been mechanically homogenized and washed with a detergent (triton X-100) to remove cellular membranes. This preparation retained all of the sarcomeric components in a native conformation and the enzymatic activity was still regulated by calcium. Compounds were tested using a myofibril suspension and a level of calcium sufficient to increase enzymatic activity of the myofibrils to 25% of their maximal rate (termed pCa25). Enzymatic activity was tracked via a pyruvate kinase and lactate dehydrogenase-coupled enzyme system. This assay regenerates myosin-produced ADP into ATP by oxidizing NADH, producing an absorbance change at 340 nm. The buffering system was 12 mM Pipes, 2 mM MgCl2, 1 mM DTT at pH 6.8 (PM12 buffer).

Row | Structure (SMILES) | Mean AC1.4
1 | CN(C(=O)c1ccnc(NCC2(c3ncccc3F)CCC2)n1)c1ccccc1 [[2-({[(3-fluoro(2-pyridyl))cyclobutyl]methyl}amino)pyrimidin-4-yl]-N-methyl-N-benzamide] | D (D=>20 uM)
2 | COc1nc(N(C)C[C@]2(c3ncccc3F)C[C@H](F)C2)ncc1-c1ccccc1 [{[3-fluoro-1-(3-fluoro(2-pyridyl))cyclobutyl]methyl}(4-methoxy-5-phenylpyrimidin-2-yl)methylamine] | D (D=>20 uM)
3 | Cc1cnc(N)nc1-c1cnc(NC[C@]2(c3ncccc3F)C[C@H](F)C2)nc1 [[5-(2-amino-5-methylpyrimidin-4-yl)pyrimidin-2-yl]{[3-fluoro-1-(3-fluoro(2-pyridyl))cyclobutyl]methyl}amine] | D (D=>20 uM)
4 | O=C(Nc1cccnc1)c1cnc(NCC2(c3ncccc3F)CCC2)nc1 [[2-({[(3-fluoro(2-pyridyl))cyclobutyl]methyl}amino)pyrimidin-5-yl]-N-(3-pyridyl)carboxamide] | C (C=10-20 uM)
5 | CC(C)(C)OC(=O)NCCNC(=O)c1cnc(NCC2(c3ncccc3F)CCC2)nc1 [N-{2-[(tert-butoxy)carbonylamino]ethyl}[2-({[(3-fluoro(2-pyridyl))cyclobutyl]methyl}amino)pyrimidin-5-yl]carboxamide] | D (D=>20 uM)
6 | CC(C)(Nc1nccc(-c2nccs2)n1)c1ncccc1Cl [[1-(3-chloro(2-pyridyl))-isopropyl](4-(1,3-thiazol-2-yl)pyrimidin-2-yl)amine] | D (D=>20 uM)
7 | N#Cc1n[nH]c2cc(F)c(-c3cnc(NC4(c5ncccc5F)CCC4)nc3)cc12 [6-fluoro-5-(2-{[(3-fluoro(2-pyridyl))cyclobutyl]amino}pyrimidin-5-yl)-1H-indazole-3-carbonitrile] | B (B=1-10 uM)
8 | O=C(Nc1cnc(NCC2(c3ncccc3F)CCC2)nc1)c1nccs1 [N-[2-(([(3-fluoro(2-pyridyl))cyclobutyl]methyl}amino)pyrimidin-5-yl]-1,3-thiazol-2-ylcarboxamide] | D (D=>20 uM)
9 | CC(C)(Nc1ncc(-c2nccs2)cn1)c1ncccc1Cl [[1-(3-chloro(2-pyridyl))-isopropyl](5-(1,3-thiazol-2-yl)pyrimidin-2-yl)amine] | B (B=1-10 uM)
10 | CC(C)(c1ncccc1S(C)(=O)=O)N(O)c1ncc(-c2cccc(C(N)=O)c2)cn1 [3-[2-({1-methyl-1-[3-(methylsulfonyl)(2-pyridyl)]ethyl}(hydroxyamino))pyrimidin-5-yl]benzamide] | D (D=>20 uM)
11 | NC(=O)c1cccc(-c2cnc(NCC3(c4ncccc4F)CC(F)C3)nc2)c1 (stereo not shown) [3-[2-({[3-fluoro-1-(3-fluoro(2-pyridyl))cyclobutyl]methyl}amino)pyrimidin-5-yl]benzamide] | A (A=<1 uM)
12 | CC(C)(Nc1ncc(-c2cc(C(N)=O)ccc2F)cn1)c1ncccc1C(F)F [3-[2-({1-[3-(difluoromethyl)(2-pyridyl)]-isopropyl)amino)pyrimidin-5-yl]-4-fluorobenzamide] | B (B=1-10 uM)
13 | CC(C)(Nc1ncc(Br)cn1)c1ccc(F)cc1 [(5-bromopyrimidin-2-yl)[1-(4-fluorophenyl)-isopropyl]amine] | C (C=10-20 uM)
14 | CC(C)(Nc1ncc(-c2nc(CN)cs2)cn1)c1ncccc1F [{5-[4-(aminomethyl)(1,3-thiazol-2-yl)]pyrimidin-2-yl}[1-(3-fluoro(2-pyridyl))-isopropyl]amine] | D (D=>20 uM)
15 | CC(C)(Nc1ncc(C#N)cn1)c1ncccc1Cl [2-{[1-(3-chloro(2-pyridyl))-isopropyl]amino}pyrimidine-5-carbonitrile] | D (D=>20 uM)
16 | O=C(Nc1nncs1)c1cnc(NCC2(c3ncccc3F)CCC2)nc1 [[2-({[(3-fluoro(2-pyridyl))cyclobutyl]methyl}amino)pyrimidin-5-yl]-N-(1,3,4-thiadiazol-2-yl)carboxamide] | B (B=1-10 uM)
17 | Fc1cccnc1C1(Nc2ncc(Br)cn2)CCC1 [(5-bromopyrimidin-2-yl)[(3-fluoro(2-pyridyl))cyclobutyl]amine] | D (D=>20 uM)

Row | Structure (SMILES) | Mean AC1.4
18 | CC(C)(Nc1ncc(C(N)=O)cn1)c1ncccc1Cl [2-{[1-(3-chloro(2-pyridyl))-isopropyl]amino}pyrimidine-5-carboxamide] | D (D=>20 uM)
19 | CC(C)[C@H](Nc1ncc(-c2ncc(C(N)=O)s2)cn1)c1ncccc1Cl [2-(2-{[(1S)-1-(3-chloro(2-pyridyl))-2-methylpropyl]amino}pyrimidin-5-yl)-1,3-thiazole-5-carboxamide] | D (D=>20 uM)
20 | CC(C)(Nc1ncc(-c2ncc(CNC(=O)[C@@H]3CCCN3)s2)cn1)c1ncccc1F [((2S)pyrrolidin-2-yl)-N-{[2-(2-{[1-(3-fluoro(2-pyridyl))-isopropyl]amino}pyrimidin-5-yl)(1,3-thiazol-5-yl)]methyl}carboxamide] | C (C=10-20 uM)
21 | CC(C)(Nc1ncc(-c2cc(C(N)=O)ccc2F)cn1)c1cccc(OC(F)F)n1 [3-[2-({1-[6-(difitioromethoxy)(2-pyridyl)]-isopropyl}amino)pyrimidin-5-yl]-4-fluorobenzamide] | A (A=<1 uM)
22 | O=C(Nc1ccccc1)c1cnc(NCC2(c3ncccc3F)CCC2)nc1 [[2-({[(3-fluoro(2-pyridyl))cyclobutyl]methyl}amino)pyrimidin-5-yl]-N-benzamide] | C (C=10-20 uM)
23 | CC(C)(Nc1ncc(-c2cccc(C(N)=O)n2)cn1)c1ncccc1Cl [6-(2-{[1-(3-chloro(2-pyridyl))-isopropyl]amino}pyrimidin-5-yl)pyridine-2-carboxamide] | C (C=10-20 uM)
24 | N#Cc1cnc(-c2cnc(NCC3(c4ncccc4F)CCC3)nc2)s1 [2-[2-({[(3-fluoro-2-pyridyl)cyclobutyl]methyl}amino)pyrimidin-5-yl]-1,3-thiazole-5-carbonitrile] | C (C=10-20 uM)
25 | CC(C)(Nc1ncccn1)c1ncccc1Cl [[1-(3-chloro(2-pyridyl))-isopropyl]pyrimidin-2-ylamine] | D (D=>20 uM)
26 | O=C(Nc1ccon1)c1cnc(NCC2(c3ncccc3F)CCC2)nc1 [[2-({[(3-fluoro(2-pyridyl))cyclobutyl]methyl}amino)pyrimidin-5-yl]-N-isoxazol-3-ylcarboxamide] | B (B=1-10 uM)
27 | CN1CC(NC(=O)c2cccc(-c3cnc(NC[C@]4(c5ncccc5F)C[C@H](F)C4)nc3)c2)C1 [{3-[2-({[3-fluoro-1-(3-fluoro(2-pyridyl))cyclobutyl]methyl}amino)pyrimidin-5-yl]phenyl}-N-(1-methylazetidin-3-yl)carboxamide] | A (A=<1 uM)
28 | COc1ccc(Cl)c(C(C)(C)Nc2ncc(-c3cccc(C(N)=O)c3)cn2)n1 [3-(2-{[1-(3-chloro-6-methoxy(2-pyridyl))-isopropyl]amino}pyrimidin-5-yl)benzamide] | A (A=<1 uM)
29 | CC(C)(Nc1ncc(-c2nc(C(N)=O)cs2)cn1)c1ncccc1F [2-(2-{[1-(3-fluoro(2-pyridyl))-isopropyl]amino}pyrimidin-5-yl)-1,3-thiazole-4-carboxamide] | D (D=>20 uM)
30 | CC(C)(C)OC(=O)NCc1cnc(-c2cnc(NCC3(c4ccccn4)CCC3)nc2)s1 [(tert-butoxy)-N-{[2-(2-{[(2-pyridylcyclobutyl)methyl]amino}pyrimidin-5-yl)(1,3-thiazol-5-yl)]methyl}carboxamide] | B (B=1-10 uM)
31 | NC(=O)Cc1cnc(-c2cnc(NC[C@]3(c4ncccc4F)C[C@H](F)C3)nc2)s1 [2-{2-[2-({[3-fluoro-1-(3-fluoro(2-pyridyl))cyclobutyl]methyl)amino)pyrimidin-5-yl]-1,3-thiazol-5-yl}acetamide] | B (B=1-10 uM)
32 | C[S+]([O-])c1cccnc1C(C)(C)Nc1ncc(-c2cccc(C(N)=O)c2)cn1 (stereo not shown) [3-(2-(2-(3-(methylsulfinyl)pyridin-2-yl)propan-2-ylamino)pyrimidin-5-yl)benzamide] | D (D=>20 uM)
33 | Oc1ccc(-c2cnc(NC[C@]3(c4ncccc4F)C[C@H](F)C3)nc2)nn1 [6-[2-({[3-fluoro-1-(3-fluoro(2-pyridyl))cyclobutyl]methyl}amino)pyrimidin-5-yl]pyridazin-3-ol] | D (D=>20 uM)
34 | CC(C)(Nc1ncc(-c2nc(CC(N)=O)cs2)cn1)c1ncccc1F [2-[2-(2-{[1-(3-fluoro(2-pyridyl))-isopropyl]amino}pyrimidin-5-yl)-1,3-thiazol-4-yl]acetamide] | D (D=>20 uM)
